Assays:
[1] = target: T1, COX-1 (Rattus norvegicus, UniProt Q63921); experiment: Anti-inflammatory assay, LPS-activated rat blood neutrophils, TXB2 ELISA (COX-1 marker); assay type: cell-based; conditions: 3 hours
T1 construct: endogenous in cells
T1 sequence (Q63921 27-602): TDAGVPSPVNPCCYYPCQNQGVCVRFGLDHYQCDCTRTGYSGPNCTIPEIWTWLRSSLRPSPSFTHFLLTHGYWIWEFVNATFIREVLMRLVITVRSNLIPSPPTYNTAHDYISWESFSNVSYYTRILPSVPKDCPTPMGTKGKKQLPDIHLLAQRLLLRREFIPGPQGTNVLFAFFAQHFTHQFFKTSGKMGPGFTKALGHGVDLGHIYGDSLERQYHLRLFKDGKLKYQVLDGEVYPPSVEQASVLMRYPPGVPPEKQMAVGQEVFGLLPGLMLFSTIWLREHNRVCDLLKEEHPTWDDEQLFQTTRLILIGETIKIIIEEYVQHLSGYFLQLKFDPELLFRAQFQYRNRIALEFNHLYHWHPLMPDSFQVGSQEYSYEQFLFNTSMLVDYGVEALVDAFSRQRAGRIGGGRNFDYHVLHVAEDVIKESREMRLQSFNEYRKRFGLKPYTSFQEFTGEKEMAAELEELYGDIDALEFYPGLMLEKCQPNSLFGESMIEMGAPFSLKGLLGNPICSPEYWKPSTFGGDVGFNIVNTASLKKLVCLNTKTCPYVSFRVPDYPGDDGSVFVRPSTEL
Procedure: (§1) The proliferation of cancers can follow an inflammatory pathway. […] This study was performed using LPS-activated neutrophils from rat blood to determine the inhibition of the inflammatory mediators cyclooxygenase enzymes COX I and COX II.
(§2) Anti-inflammatory assays were carried out as follows. Neutrophils from rat blood were cultured in the presence of the test sample or positive control before being activated into an inflammatory response through the use of lipopolysaccharide (LPS). The incubation period before addition of LPS was 20 minutes. The cell culture supernatants were then tested by ELISA for the presence of the cyclooxygenase COX-1 and COX-2 marker compounds thromboxane TXB2 and prostaglandin PGE2, respectively. […] The test samples were used at 50 μg and 200 μg of solids/ml, and were tested in triplicate. The incubation period for TXB2 and PGE2 was 3 hours.

[2] = target: T2, COX-2 (Rattus norvegicus, UniProt P35355); experiment: Anti-inflammatory assay, LPS-activated rat blood neutrophils, PGE2 ELISA (COX-2 marker); assay type: cell-based; conditions: 3 hours
T2 construct: endogenous in cells
T2 sequence (P35355 18-604): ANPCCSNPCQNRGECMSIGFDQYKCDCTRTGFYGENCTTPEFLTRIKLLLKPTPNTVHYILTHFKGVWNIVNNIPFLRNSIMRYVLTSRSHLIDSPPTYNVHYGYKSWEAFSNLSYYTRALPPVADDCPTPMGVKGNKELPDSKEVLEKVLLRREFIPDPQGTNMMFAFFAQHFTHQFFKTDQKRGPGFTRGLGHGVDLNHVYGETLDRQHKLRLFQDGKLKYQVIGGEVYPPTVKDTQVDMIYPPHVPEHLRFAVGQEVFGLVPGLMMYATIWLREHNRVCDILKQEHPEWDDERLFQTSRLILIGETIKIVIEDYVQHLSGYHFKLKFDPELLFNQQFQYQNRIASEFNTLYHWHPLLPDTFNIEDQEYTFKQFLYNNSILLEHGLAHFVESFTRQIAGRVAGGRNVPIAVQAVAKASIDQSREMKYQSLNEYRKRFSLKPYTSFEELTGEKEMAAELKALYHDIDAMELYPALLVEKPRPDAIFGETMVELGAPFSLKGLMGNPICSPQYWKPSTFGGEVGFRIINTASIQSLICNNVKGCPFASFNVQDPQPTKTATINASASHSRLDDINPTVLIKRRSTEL
Procedure: as §1, §2

- COX (I), 50 μg/ml ([1]; 50 μg of solids/ml): S, NS
- COX (I), 200 μg/ml ([1]; 200 μg of solids/ml): 2.3, NS
- COX (II), 50 μg/ml ([2]; 50 μg of solids/ml): 10.1, NS
- COX (II), 200 μg/ml ([2]; 200 μg of solids/ml): S, NS
Structure (SMILES): OC[C@H]1O[C@@H]2O[C@H]3[C@H](O)[C@@H](O)[C@@H](O[C@H]4[C@H](O)[C@@H](O)[C@@H](O[C@H]5[C@H](O)[C@@H](O)[C@@H](O[C@H]6[C@H](O)[C@@H](O)[C@@H](O[C@H]7[C@H](O)[C@@H](O)[C@@H](O[C@H]8[C@H](O)[C@@H](O)[C@@H](O[C@H]9[C@H](O)[C@@H](O)[C@@H](O[C@H]1[C@H](O)[C@H]2O)O[C@@H]9CO)O[C@@H]8CO)O[C@@H]7CO)O[C@@H]6CO)O[C@@H]5CO)O[C@@H]4CO)O[C@@H]3CO [IFS#11, Gamma cyclodextrin]

From patent US20170209499A1, “Propolis and Extracts Thereof for the Treatment of Skin Cancers and Improvement of Skin Health” (Manuka Health New Zealand Limited, priority 2014, published 2017)
